US12509450B2, “Solid forms of a dual RAF/MEK inhibitor” (Verastem, Inc., priority 2022, dated 2025)

Key:
[1] = Dynamic vapor sorption (DVS) moisture sorption isotherm; format: physicochemical; settings: for solid form after DVS (XRPD): XRPD of post-DVS sample
Description: Samples were analyzed using a TA Instruments Q5000SA gravimetric water sorption analyzer. The weight of the sample was continuously monitored and recorded with respect to the relative humidity (RH) and time. Samples of 5-10 mg were placed in a tared, hermetically sealed aluminum DVS pan under ambient conditions. The sample pan was punctured prior to being loaded into the humidity chamber. A moisture sorption isotherm was performed at 25° C. at 10% RH intervals over a 0-90% RH range. Three cycles were carried out. If the mass gain or loss on a sorption step was less than 0.1% over 15 minutes, the next humidity interval would begin. If weight continued to change after 120 minutes at a given step, the step would time out and proceed to the next humidity interval.

[2] = Stability of Form 1 under stressed conditions (XRPD, UPLC purity, KF water content); format: physicochemical; settings: for Purity (Week 1): week 1, UPLC; for Purity (Week 4): week 4, UPLC; for Water content (Week 5): week 5, KF
Description: X-ray powder diffraction patterns were obtained using a Bruker D8 equipped with a Cu Kα radiation (40 kV, 40 mA) source (λ=1.54°A), a 9-position sample holder, and a θ-2θ goniometer fitted with a Ge monochromator. The incident beam passes through a 2.0 mm divergence slit followed by a 0.2 mm antiscatter slit. The diffracted beam passes through an 8.0 mm receiving slit with 2.5° Soller slits followed by a LYNXEYE super speed detector. Samples were prepared on polished, zero-background silicon plates and run using a low background, airtight specimen dome.
A Mettler Toledo DL39 Coulometric KF Titrator was used to determine the apparent water content in samples. About 90-100 mg of the solid was used for titration. To limit the exposure of the solution to the air, the titrator opening was closed by a stopper immediately after adding samples. HYDRANAL-Coulomat AD was used as the titrant added at 40% speed. The mixing time used was 30 seconds prior to analysis.
The purity of the sample was determined using the method provided by the Analytical Development at JM. Data were collected using an Agilent […] Series UPLC system and analyzed using Chemstation software.
Form 1 solids were stored in 40° C./75% RH or 30° C./65% RH conditions. The XRPD and UPLC purity were measured at week 1 and week 4 time points. […] Additionally, water content was measured by KF at Week 5.

| Structure (SMILES) | hygroscopicity ([1]; DVS, 25° C.) | weight change between 0-90% RH ([1]; DVS, 25° C.) | weight gain observed between 80-90% RH ([1]; DVS, 25° C.) [%] | solid form after DVS (XRPD) [1] | XRPD (Week 1) ([2]; 30° C./65% RH) | Purity (Week 1) ([2]; 30° C./65% RH) [%] | XRPD (Week 4) ([2]; 30° C./65% RH) | Purity (Week 4) ([2]; 30° C./65% RH) [%] | Water content (Week 5) ([2]; 30° C./65% RH) [%] | purity determined by UPLC on storage ([2]; 40° C./75% RH or 30° C./65% RH, week 1 and week 4) | water content by KF on storage versus initial ([2]; 40° C./75% RH or 30° C./65% RH, week 5) | XRPD (Week 1) ([2]; 40° C./75% RH) | Purity (Week 1) ([2]; 40° C./75% RH) [%] | XRPD (Week 4) ([2]; 40° C./75% RH) | Purity (Week 4) ([2]; 40° C./75% RH) [%] | Water content (Week 5) ([2]; 40° C./75% RH) [%] | weight change between 0-80% RH ([1]; DVS, 25° C., 0-80% RH) | weight gain at above 80% RH ([1]; DVS, 25° C., above 80% RH) |
| --- | --- | --- | --- | --- | --- | --- | --- | --- | --- | --- | --- | --- | --- | --- | --- | --- | --- | --- |
| CNS(=O)(=O)Nc1nccc(Cc2c(C)c3ccc(Oc4ncccn4)cc3oc2=O)c1F [Form 1] | slightly hygroscopic | about 1.8% | > 1 | no form change | Form 1 | 99.2 | Form 1 | 99.2 | 0.6 | remained statistically unchanged | consistent with initial water content | Form 1 | 99.2 | Form 1 | 99.2 | 0.5 |  |  |
| CNS(=O)(=O)Nc1nccc(Cc2c(C)c3ccc(Oc4ncccn4)cc3oc2=O)c1F [Form 8] | slightly hygroscopic |  | > 0.27 | converted to Form 1 |  |  |  |  |  |  |  |  |  |  |  |  | up to 0.44% | at least 1.12% |
| CNS(=O)(=O)Nc1nccc(Cc2c(C)c3ccc(Oc4ncccn4)cc3oc2=O)c1F.[K+] [Form 10] | hygroscopic | about 5.5% |  | converted to Form 1 |  |  |  |  |  |  |  |  |  |  |  |  |  |  |
